Measurements: ChEMBL document CHEMBL5291721, “A preclinical secondary pharmacology resource illuminates target-adverse drug reaction associations of marketed drugs” (Nat Commun, 2023)

Legend:
[1] = target: T1, D(1A) dopamine receptor (Homo sapiens, UniProt P21728)
[2] = target: T2, D(3) dopamine receptor (Homo sapiens, UniProt P35462)
[3] = target: T3, 5-hydroxytryptamine receptor 1A (Homo sapiens, UniProt P08908); type: functional, cell-based
T3 sequence (P08908 whole entry): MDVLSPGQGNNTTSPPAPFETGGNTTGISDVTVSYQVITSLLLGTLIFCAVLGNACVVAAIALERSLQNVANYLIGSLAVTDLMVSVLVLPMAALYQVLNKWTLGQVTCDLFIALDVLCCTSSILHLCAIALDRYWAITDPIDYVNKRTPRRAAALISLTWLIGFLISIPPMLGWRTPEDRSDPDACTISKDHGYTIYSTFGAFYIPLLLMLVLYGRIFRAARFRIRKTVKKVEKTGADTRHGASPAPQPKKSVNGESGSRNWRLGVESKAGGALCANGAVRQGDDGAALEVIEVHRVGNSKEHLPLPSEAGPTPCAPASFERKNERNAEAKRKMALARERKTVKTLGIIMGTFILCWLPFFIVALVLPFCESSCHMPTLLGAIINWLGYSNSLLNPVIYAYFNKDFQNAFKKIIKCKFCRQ

[4] = target: Kappa-type opioid receptor (Homo sapiens, UniProt P41145)
[5] = target: T4, 5-hydroxytryptamine receptor 2B (Homo sapiens, UniProt P41595)
T4 sequence (P41595 whole entry): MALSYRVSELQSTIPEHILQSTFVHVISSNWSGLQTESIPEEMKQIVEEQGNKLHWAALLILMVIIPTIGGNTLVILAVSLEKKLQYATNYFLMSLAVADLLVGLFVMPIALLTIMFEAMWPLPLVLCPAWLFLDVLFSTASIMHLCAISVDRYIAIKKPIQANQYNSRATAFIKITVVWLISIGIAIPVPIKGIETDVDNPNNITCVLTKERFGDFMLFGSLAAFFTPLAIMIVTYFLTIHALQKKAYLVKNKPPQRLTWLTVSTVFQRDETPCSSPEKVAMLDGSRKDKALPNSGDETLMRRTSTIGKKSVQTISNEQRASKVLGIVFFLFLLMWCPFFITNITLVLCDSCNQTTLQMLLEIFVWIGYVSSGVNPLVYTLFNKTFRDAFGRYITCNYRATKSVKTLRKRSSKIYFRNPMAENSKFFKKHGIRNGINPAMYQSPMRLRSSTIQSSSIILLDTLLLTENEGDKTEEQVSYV

[6] = target: T5, Mu-type opioid receptor (Homo sapiens, UniProt P35372)
T5 sequence (P35372 whole entry): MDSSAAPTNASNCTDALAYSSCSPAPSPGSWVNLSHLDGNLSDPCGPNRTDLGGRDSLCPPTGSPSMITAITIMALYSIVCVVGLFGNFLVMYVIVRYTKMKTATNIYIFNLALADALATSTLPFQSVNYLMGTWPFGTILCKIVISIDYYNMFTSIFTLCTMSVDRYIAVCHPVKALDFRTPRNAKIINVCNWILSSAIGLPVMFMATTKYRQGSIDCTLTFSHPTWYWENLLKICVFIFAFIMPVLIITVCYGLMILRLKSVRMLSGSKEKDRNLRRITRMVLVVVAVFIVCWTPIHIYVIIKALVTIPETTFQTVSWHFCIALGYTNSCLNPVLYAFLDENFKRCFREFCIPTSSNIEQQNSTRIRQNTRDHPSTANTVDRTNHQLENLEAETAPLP

[7] = target: Glutamate receptor ionotropic, NMDA 1 (Rattus norvegicus, UniProt P35439)
[8] = target: T6, 5-hydroxytryptamine receptor 3A (Homo sapiens, UniProt P46098); type: functional
T6 sequence (P46098 whole entry): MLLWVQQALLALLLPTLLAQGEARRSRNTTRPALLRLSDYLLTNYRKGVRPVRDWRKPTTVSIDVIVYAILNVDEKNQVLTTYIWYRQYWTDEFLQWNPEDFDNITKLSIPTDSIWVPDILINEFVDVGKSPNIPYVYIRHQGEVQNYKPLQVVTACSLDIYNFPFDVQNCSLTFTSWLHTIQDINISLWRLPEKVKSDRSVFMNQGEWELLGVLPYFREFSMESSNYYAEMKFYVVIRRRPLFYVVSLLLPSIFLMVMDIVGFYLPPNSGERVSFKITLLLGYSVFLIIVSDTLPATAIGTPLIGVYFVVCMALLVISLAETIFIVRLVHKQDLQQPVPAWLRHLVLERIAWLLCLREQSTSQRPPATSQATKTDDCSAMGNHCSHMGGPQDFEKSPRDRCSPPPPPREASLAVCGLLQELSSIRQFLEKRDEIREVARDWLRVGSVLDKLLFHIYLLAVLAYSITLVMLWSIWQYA

[9] = target: T1, D(1A) dopamine receptor; remark: listed apart in the source
[10] = target: T7, Sodium-dependent dopamine transporter (Homo sapiens, UniProt Q01959)
T7 sequence (Q01959 whole entry): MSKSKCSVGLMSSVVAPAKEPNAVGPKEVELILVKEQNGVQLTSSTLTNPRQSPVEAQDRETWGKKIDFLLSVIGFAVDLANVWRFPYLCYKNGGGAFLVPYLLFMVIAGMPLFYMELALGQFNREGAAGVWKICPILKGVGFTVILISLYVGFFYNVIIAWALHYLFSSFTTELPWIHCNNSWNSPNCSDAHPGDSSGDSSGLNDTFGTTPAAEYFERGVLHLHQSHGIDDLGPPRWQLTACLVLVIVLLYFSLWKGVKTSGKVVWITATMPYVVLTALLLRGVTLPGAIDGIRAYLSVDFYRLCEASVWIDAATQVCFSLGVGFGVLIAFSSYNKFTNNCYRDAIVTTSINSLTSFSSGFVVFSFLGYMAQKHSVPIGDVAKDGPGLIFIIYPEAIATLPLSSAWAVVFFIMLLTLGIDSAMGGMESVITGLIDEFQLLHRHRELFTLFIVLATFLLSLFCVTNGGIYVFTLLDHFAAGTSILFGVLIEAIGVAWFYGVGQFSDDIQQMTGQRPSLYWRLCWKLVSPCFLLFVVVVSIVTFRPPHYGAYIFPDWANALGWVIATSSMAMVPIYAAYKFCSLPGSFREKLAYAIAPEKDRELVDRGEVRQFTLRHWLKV

[11] = target: T7, Sodium-dependent dopamine transporter; remark: listed apart in the source
[12] = target: T2, D(3) dopamine receptor; remark: listed apart in the source
[13] = target: T4, 5-hydroxytryptamine receptor 2B; type: functional, cell-based
[14] = target: Delta-type opioid receptor (Homo sapiens, UniProt P41143)
Sequence of Delta-type opioid receptor (P41143 whole entry): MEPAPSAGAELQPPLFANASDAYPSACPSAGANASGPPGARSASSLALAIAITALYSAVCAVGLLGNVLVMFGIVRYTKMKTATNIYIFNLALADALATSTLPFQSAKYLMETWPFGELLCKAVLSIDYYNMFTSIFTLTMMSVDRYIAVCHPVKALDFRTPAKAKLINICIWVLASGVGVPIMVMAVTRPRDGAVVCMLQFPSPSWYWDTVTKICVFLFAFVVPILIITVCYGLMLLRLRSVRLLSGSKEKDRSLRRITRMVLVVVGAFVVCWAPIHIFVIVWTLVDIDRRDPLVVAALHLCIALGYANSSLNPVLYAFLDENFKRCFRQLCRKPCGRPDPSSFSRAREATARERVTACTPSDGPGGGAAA

[15] = target: T3, 5-hydroxytryptamine receptor 1A
[16] = target: T5, Mu-type opioid receptor; remark: listed apart in the source
[17] = target: T3, 5-hydroxytryptamine receptor 1A; type: functional, cell-based; remark: listed apart in the source
[18] = target: T1, D(1A) dopamine receptor; remark: listed apart in the source
[19] = target: T8, Gamma-aminobutyric acid receptor subunit alpha-1 (Rattus norvegicus, UniProt P62813)
T8 sequence (P62813 whole entry): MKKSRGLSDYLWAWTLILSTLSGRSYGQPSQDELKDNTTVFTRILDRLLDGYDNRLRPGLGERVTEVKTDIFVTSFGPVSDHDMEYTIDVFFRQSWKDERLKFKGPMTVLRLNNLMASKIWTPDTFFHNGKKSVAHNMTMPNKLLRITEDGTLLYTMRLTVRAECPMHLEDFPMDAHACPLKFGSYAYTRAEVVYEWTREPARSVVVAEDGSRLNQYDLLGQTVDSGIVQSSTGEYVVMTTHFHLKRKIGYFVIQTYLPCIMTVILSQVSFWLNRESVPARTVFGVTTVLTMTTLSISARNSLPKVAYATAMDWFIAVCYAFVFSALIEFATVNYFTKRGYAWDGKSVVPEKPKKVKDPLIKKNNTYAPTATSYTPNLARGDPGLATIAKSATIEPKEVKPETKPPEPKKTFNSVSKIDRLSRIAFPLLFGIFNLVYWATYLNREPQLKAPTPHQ

[20] = target: T9, Sodium-dependent noradrenaline transporter (Homo sapiens, UniProt P23975)
T9 sequence (P23975 whole entry): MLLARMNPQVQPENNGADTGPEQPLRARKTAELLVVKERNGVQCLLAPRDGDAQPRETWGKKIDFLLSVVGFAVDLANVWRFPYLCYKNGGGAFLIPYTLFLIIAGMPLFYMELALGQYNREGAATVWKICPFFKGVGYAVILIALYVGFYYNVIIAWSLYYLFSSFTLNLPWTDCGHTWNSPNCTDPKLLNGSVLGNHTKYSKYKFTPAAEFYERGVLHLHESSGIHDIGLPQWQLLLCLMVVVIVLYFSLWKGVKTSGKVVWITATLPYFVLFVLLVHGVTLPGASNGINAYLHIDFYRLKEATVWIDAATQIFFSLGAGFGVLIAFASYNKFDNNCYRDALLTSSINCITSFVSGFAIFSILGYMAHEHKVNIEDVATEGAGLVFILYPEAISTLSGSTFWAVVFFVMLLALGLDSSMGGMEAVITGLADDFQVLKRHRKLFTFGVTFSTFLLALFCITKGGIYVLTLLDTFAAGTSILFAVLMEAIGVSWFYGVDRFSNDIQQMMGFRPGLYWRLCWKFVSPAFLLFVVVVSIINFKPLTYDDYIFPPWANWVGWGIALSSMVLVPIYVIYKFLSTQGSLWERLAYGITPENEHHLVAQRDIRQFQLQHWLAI

[21] = target: T8, Gamma-aminobutyric acid receptor subunit alpha-1; type: functional
[22] = target: T10, Cannabinoid receptor 1 (Homo sapiens, UniProt P21554)
T10 sequence (P21554 whole entry): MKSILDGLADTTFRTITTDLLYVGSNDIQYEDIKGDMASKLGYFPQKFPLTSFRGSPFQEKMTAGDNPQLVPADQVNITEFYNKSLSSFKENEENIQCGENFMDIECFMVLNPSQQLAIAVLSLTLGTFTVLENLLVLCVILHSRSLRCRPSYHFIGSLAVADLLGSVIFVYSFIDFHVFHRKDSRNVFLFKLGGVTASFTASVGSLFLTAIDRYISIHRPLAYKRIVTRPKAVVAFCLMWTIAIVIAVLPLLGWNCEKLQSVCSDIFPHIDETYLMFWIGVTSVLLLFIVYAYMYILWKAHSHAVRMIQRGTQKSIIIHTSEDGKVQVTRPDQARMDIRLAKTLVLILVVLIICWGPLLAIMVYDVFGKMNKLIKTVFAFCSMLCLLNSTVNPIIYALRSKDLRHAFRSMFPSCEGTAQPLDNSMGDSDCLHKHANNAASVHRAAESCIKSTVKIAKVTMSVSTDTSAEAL

[23] = target: T1, D(1A) dopamine receptor; type: functional, cell-based
[24] = target: Voltage-dependent N-type calcium channel subunit alpha-1B (Rattus norvegicus, UniProt Q02294); type: functional
[25] = target: T8, Gamma-aminobutyric acid receptor subunit alpha-1; remark: listed apart in the source
[26] = target: T11, D(4) dopamine receptor (Homo sapiens, UniProt P21917)
T11 sequence (P21917 whole entry): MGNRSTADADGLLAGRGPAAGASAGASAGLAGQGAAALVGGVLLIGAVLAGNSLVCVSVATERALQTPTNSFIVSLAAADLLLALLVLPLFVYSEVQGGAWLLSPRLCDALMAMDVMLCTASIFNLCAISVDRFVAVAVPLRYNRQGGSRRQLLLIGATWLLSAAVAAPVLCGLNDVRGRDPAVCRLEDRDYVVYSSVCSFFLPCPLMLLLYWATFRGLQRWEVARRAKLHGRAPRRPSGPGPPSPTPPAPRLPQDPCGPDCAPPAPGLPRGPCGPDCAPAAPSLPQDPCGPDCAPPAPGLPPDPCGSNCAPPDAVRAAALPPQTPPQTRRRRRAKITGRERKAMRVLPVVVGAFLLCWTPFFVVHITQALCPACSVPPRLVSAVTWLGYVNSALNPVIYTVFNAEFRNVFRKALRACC

[27] = target: T4, 5-hydroxytryptamine receptor 2B; type: functional, cell-based; remark: listed apart in the source
[28] = target: T9, Sodium-dependent noradrenaline transporter; remark: listed apart in the source
[29] = target: T4, 5-hydroxytryptamine receptor 2B; type: functional, cell-based; remark: listed apart in the source
[30] = target: T12, 5-hydroxytryptamine receptor 2C (Homo sapiens, UniProt P28335)
T12 sequence (P28335 whole entry): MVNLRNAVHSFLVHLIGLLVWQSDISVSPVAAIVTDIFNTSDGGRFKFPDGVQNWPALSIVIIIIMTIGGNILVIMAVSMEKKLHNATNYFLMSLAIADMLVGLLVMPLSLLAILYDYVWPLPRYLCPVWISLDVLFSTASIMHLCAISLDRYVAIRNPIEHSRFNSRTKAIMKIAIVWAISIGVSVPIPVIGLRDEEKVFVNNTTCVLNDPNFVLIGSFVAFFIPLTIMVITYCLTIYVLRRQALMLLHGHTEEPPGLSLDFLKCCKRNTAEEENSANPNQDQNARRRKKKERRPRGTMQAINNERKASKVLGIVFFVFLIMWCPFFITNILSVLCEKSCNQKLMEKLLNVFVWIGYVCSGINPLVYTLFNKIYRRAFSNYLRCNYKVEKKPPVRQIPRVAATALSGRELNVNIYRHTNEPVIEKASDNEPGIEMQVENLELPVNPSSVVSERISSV

[31] = target: T10, Cannabinoid receptor 1; type: functional, cell-based
[32] = target: Neuronal acetylcholine receptor subunit alpha-4 (Homo sapiens, UniProt P43681)
Sequence of Neuronal acetylcholine receptor subunit alpha-4 (P43681 whole entry): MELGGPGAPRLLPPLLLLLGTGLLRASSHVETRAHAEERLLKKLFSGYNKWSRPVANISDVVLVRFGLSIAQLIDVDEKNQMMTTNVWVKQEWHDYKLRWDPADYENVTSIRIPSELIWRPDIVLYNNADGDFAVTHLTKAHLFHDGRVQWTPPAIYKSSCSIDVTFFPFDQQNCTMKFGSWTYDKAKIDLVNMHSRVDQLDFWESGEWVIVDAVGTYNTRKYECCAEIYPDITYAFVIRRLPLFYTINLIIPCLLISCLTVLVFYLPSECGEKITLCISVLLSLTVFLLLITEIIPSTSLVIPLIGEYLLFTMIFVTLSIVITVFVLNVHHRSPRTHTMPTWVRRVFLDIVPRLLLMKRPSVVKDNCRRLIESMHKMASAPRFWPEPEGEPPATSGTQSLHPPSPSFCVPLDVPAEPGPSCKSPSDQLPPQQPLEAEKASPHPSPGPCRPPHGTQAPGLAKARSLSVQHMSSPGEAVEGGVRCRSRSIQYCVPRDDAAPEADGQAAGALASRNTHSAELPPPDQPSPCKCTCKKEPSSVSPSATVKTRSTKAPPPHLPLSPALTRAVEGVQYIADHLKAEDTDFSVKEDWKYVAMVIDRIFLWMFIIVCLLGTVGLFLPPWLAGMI

[33] = target: T3, 5-hydroxytryptamine receptor 1A; remark: listed apart in the source
Note: assay procedure not described here.

T1 sequence (P21728 whole entry): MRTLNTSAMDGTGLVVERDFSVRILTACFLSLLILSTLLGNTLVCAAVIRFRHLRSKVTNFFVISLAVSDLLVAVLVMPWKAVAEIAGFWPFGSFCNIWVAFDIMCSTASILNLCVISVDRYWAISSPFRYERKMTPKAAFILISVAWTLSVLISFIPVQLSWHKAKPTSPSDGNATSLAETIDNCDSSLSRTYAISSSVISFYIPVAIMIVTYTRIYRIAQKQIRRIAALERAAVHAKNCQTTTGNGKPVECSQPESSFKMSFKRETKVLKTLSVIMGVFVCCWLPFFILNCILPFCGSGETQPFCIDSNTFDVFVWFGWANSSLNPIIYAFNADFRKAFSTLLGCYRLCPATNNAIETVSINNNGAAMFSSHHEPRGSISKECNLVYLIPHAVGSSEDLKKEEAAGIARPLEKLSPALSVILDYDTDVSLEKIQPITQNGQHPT
T2 sequence (P35462 whole entry): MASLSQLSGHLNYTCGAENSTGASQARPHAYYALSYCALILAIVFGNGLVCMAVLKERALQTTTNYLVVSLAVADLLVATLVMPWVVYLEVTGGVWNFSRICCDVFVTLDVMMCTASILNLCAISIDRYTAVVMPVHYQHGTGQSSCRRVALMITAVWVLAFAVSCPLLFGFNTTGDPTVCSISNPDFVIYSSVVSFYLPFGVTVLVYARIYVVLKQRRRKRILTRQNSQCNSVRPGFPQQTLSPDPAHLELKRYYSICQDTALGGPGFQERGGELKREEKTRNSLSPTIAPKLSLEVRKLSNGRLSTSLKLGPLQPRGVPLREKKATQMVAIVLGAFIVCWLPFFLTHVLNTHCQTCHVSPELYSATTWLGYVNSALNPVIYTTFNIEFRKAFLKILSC

SMILES: COC(=O)C1=C(C)NC(C)=C(C(=O)OC)C1c1ccccc1[N+](=O)[O-] [NIFEDIPINE]
- AC50 [1]: 26 µM
- AC50 [2]: > 10 µM
- AC50 [3]: > 10 µM
- AC50 [4]: > 10 µM
- AC50 [5]: > 10 µM
- AC50 [6]: > 30 µM
- AC50 [7]: > 10 µM
- AC50 [8]: > 30 µM
- AC50 [9]: > 30 µM
- AC50 [10]: > 10 µM
- AC50 [11]: > 30 µM
- AC50 [12]: > 30 µM
- AC50 [13]: > 10 µM
- AC50 [14]: > 30 µM
- AC50 [15]: > 10 µM
- AC50 [16]: 11 µM
- AC50 [17]: > 10 µM
- AC50 [18]: > 10 µM
- AC50 [19]: > 10 µM
- AC50 [20]: > 30 µM
- AC50 [21]: > 10 µM
- AC50 [22]: > 10 µM
- AC50 [23]: > 10 µM
- AC50 [24]: > 10 µM
- AC50 [25]: > 30 µM
- AC50 [26]: > 10 µM
- AC50 [27]: > 30 µM
- AC50 [28]: > 10 µM
- AC50 [29]: 6.8 µM
- AC50 [30]: > 30 µM
- AC50 [31]: > 30 µM
- AC50 [32]: > 10 µM
- AC50 [33]: > 30 µM
